Data from patent US20120220590A1, “NOVEL COMPOUNDS AS MODULATORS OF GLUCOCORTICOID RECEPTORS” (priority 2009, published 2012).

How the values were obtained:
[1] = system: LPS-induced IL-6 secretion in U 937 cells; assay: Modulation of proinflammatory cytokine production in U 937 cells (transrepression): IL-6; type: cell-based; conditions: Homo sapiens, U 937 cells stimulated with 5 μg/mL LPS, ELISA; for inhibition at 0.1 µM: 0.1 μM test compound; for inhibition at 1 µM: 1 μM test compound
Method: (§1) VI) Modulation of Proinflammatory Cytokine Production in U 937 Cells (Determination of Transrepression)
(§2) Testing of compounds in GR-mediated inhibition of LPS-induced TNFα, IL-1β, and IL-6 secretion in U 937 cells.
(§3) Differentiated U 937 cells are incubated for 2 days in RPMI1640 medium containing 10% CCS (charcoal treated calf serum). The cells are transferred to 96 well plates and stimulated with 5 μg/mL LPS (dissolved in PBS) in the presence or absence of dexamethasone or test compound (dissolved in DMSO, final concentration 0.2%). Control cells are treated with 0.2% DMSO. After required incubation periods, proinflammatory cytokine(s) concentrations in the cell supernatant are measured by ELISA, using the “BD OptEIA™ Set human TNF, BD OptEIA™ Set human IL-6, BD OptEIA™ Set human IL-1β.
(§4) TNF α inhibition induced by Dexamethasone at 10 nM concentration was considered as 100% and % inhibition of the test NCE was determined as compared to Dexamethasone. Dose-response curves are calculated by fitting to a non-linear 4-parameter logistic model, and absolute EC50 (or IC50) values for the determination of dissociation are derived from these curves and the corresponding curve for dexamethasone on the same experimental occasion.

[2] = system: LPS-induced TNFα secretion in U 937 cells; assay: Modulation of proinflammatory cytokine production in U 937 cells (transrepression): TNFα; type: cell-based; conditions: Homo sapiens, U 937 cells stimulated with 5 μg/mL LPS, inhibition by Dexamethasone at 10 nM considered as 100%, read-out: % TNF α Inhibition; for inhibition at 0.1 µM: 0.1 μM test compound; for inhibition at 1 µM: 1 μM test compound
Method: as §1, §2, §3, §4

Row | Structure (SMILES) | inhibition at 0.1 µM [1] [%] | inhibition at 1 µM [1] [%] | inhibition at 0.1 µM [2] [%] | inhibition at 1 µM [2] [%]
1 | CNC(=O)c1cc(OCCc2cccnc2)cc(Oc2ccc(CN(Cc3ccc(C#N)cc3)c3cccc(NS(C)(=O)=O)c3C)cc2)c1 [Example 74, 3-(4-(((4-cyanobenzyl)(2-methyl-3-(methylsulfonamido)phenyl)amino)methyl)phenoxy)-N-methyl-5-(2-(pyridin-3-yl)ethoxy)benzamide] | 100 | 100 | 90.4 | 100
2 | Cc1c(NS(C)(=O)=O)cccc1N(Cc1ccc(C#N)cc1)Cc1ccc(Oc2cccc(OCC3CCOC3)c2)cc1 (centres unmarked) [Example 58, N-(3-((4-cyanobenzyl)(4-(3-((tetrahydrofuran-3-yl)methoxy)phenoxy)benzyl)amino)-2-methylphenyl)methanesulfonamide] | 45 | 76 | 13.1 | 55
3 | Cc1c(NS(C)(=O)=O)cccc1N(Cc1ccc(C#N)cc1)Cc1ccc(Oc2cc(CO)cc(OCC3CCOC3)c2)cc1 (centres unmarked) [Example 81, N-(3-((4-cyanobenzyl)(4-(3-(hydroxymethyl)-5-((tetrahydrofuran-3-yl)methoxy)phenoxy)benzyl)amino)-2-methylphenyl)methanesulfonamide] | – | – | 88.9 | 88.2
4 | CCS(=O)(=O)Nc1cccc(N(Cc2ccc(Oc3cccc(OCCc4cccnc4)c3)cc2)Cc2cccc(C#N)c2)c1C [Example 60, N-(3-((3-cyanobenzyl)(4-(3-(2-(pyridin-3-yl)ethoxy)phenoxy)benzyl)amino)-2-methylphenyl)ethanesulfonamide] | 90 | 91.7 | 95.1 | 96.3
5 | CCS(=O)(=O)Nc1cccc(N(Cc2ccc(Oc3cc(CO)cc(OCC4CCOC4)c3)cc2)Cc2cccc(C#N)c2)c1C (centres unmarked) [Example 86, N-(3-((3-cyanobenzyl)(4-(3-(hydroxymethyl)-5-((tetrahydrofuran-3-yl)methoxy)phenoxy)benzyl)amino)-2-methylphenyl)ethanesulfonamide] | – | – | 95.5 | 95.6
6 | CCS(=O)(=O)Nc1cccc(N(Cc2ccc(C#N)cc2)Cc2ccc(Oc3cc(CO)cc(OCc4cccnc4)c3)cc2)c1C [Example 85, N-(3-((4-cyanobenzyl)(4-(3-(hydroxymethyl)-5-(pyridin-3-ylmethoxy)phenoxy)benzyl)amino)-2-methylphenyl)ethanesulfonamide] | – | – | 88.5 | 91.2
7 | Cc1c(NS(C)(=O)=O)cccc1N(Cc1ccc(C#N)cc1)Cc1ccc(Oc2cccc(OCCc3cccs3)c2)cc1 [Example 35, N-(3-((4-cyanobenzyl)(4-(3-(2-(thiophen-2-yl)ethoxy)phenoxy)benzyl)amino)-2-methylphenyl)methanesulfonamide] | 28 | 54 | 41.8 | 83.4
8 | Cc1c(NS(C)(=O)=O)cccc1N(Cc1ccc(Oc2cc(OCCc3cccnc3)cc(C(N)=O)c2)cc1)Cc1ccc(C#N)c(F)c1 [Example 83, 3-(4-(((4-cyano-3-fluorobenzyl)(2-methyl-3-(methylsulfonamido)phenyl)amino)methyl)phenoxy)-5-(2-(pyridin-3-yl)ethoxy)benzamide] | 95.7 | 95.1 | 93.4 | 94.5
9 | Cc1c(NS(C)(=O)=O)cccc1N(Cc1ccc(C#N)cc1)Cc1ccc(Oc2cc(CO)cc(OCCc3cccnc3)c2)cc1 [Example 76, N-(3-((4-cyanobenzyl)(4-(3-(hydroxymethyl)-5-(2-(pyridin-3-yl)ethoxy)phenoxy)benzyl)amino)-2-methylphenyl)methanesulfonamide] | 85.7 | 88.8 | 87.6 | 86.2
10 | CCS(=O)(=O)Nc1cccc(N(Cc2ccc(C#N)cc2)Cc2ccc(Oc3cccc(OCc4ccoc4)c3)cc2)c1C [Example 20, N-(3-((4-cyanobenzyl)(4-(3-(furan-3-ylmethoxy)phenoxy)benzyl)amino)-2-methylphenyl)ethanesulfonamide] | 92.2 | 97.9 | 88.9 | 93.6
11 | CCS(=O)(=O)Nc1cccc(N(Cc2ccc(Oc3cccc(OCC4CCOC4)c3)cc2)Cc2cccc(C#N)c2)c1C (centres unmarked) [Example 16, N-(3-((3-cyanobenzyl)(4-(3-((tetrahydrofuran-3-yl)methoxy)phenoxy)benzyl)amino)-2-methylphenyl)ethanesulfonamide] | 62 | 81 | 63.2 | 87.4
12 | Cc1c(NS(C)(=O)=O)cccc1N(Cc1ccc(C#N)cc1)Cc1ccc(Oc2cc(C#N)cc(OCC3CCOC3)c2)cc1 (centres unmarked) [Example 82, N-(3-((4-(3-cyano-5-((tetrahydrofuran-3-yl)methoxy)phenoxy)benzyl)(4-cyanobenzyl)amino)-2-methylphenyl)methanesulfonamide] | 60 | 83 | 50 | 71.1
13 | Cc1c(NS(C)(=O)=O)cccc1N(Cc1ccc(Oc2cccc(OCCc3cccnc3)c2)cc1)Cc1cccc(C#N)c1 [Example 62, N-(3-((3-cyanobenzyl)(4-(3-(2-(pyridin-3-yl)ethoxy)phenoxy)benzyl)amino)-2-methylphenyl)methanesulfonamide] | 68.4 | 90.8 | 52.6 | 83.7
14 | Cc1c(NS(C)(=O)=O)cccc1N(Cc1ccc(Oc2cc(CO)cc(OCC3CCOC3)c2)cc1)Cc1cccc(C#N)c1 (centres unmarked) [Example 80, N-(3-((3-cyanobenzyl)(4-(3-(hydroxymethyl)-5-((tetrahydrofuran-3-yl)methoxy)phenoxy)benzyl)amino)-2-methylphenyl)methanesulfonamide] | – | – | 84.1 | 86.5
15 | Cc1c(NS(C)(=O)=O)cccc1N(Cc1ccc(C#N)cc1)Cc1ccc(Oc2cc(OCCc3cccnc3)cc(C(N)=O)c2)cc1 [Example 75, 3-(4-(((4-cyanobenzyl)(2-methyl-3-(methylsulfonamido)phenyl)amino)methyl)phenoxy)-5-(2-(pyridin-3-yl)ethoxy)benzamide] | 98.2 | 100 | 75.3 | 100
16 | Cc1c(NS(C)(=O)=O)cccc1N(Cc1ccc(C#N)cc1)Cc1ccc(Oc2cc(CO)cc(OCc3cccnc3)c2)cc1 [Example 79, N-(3-((4-cyanobenzyl)(4-(3-(hydroxymethyl)-5-(pyridin-3-ylmethoxy)phenoxy)benzyl)amino)-2-methylphenyl)methanesulfonamide] | 97 | 97 | 87.7 | 88.2
17 | Cc1c(NS(C)(=O)=O)cccc1N(Cc1ccc(Oc2cccc(OCC3CCOC3)c2)cc1)Cc1cccc(C#N)c1 (centres unmarked) [Example 55, N-(3-((3-cyanobenzyl)(4-(3-((tetrahydrofuran-3-yl)methoxy)phenoxy)benzyl)amino)-2-methylphenyl)methanesulfonamide] | 55 | 76 | 1.54 | -1.12
18 | Cc1c(NS(C)(=O)=O)cccc1N(Cc1ccccc1)Cc1ccc(Oc2cccc(OCCc3cccnc3)c2)cc1 [Example 78, N-(3-(benzyl(4-(3-(2-(pyridin-3-yl)ethoxy)phenoxy)benzyl)amino)-2-methylphenyl)methanesulfonamide] | 62 | 74 | 67.9 | 83.9
19 | Cc1c(NS(C)(=O)=O)cccc1N(Cc1ccc(C#N)cc1)Cc1ccc(Oc2cc(C#N)cc(OCCc3cccnc3)c2)cc1 [Example 84, N-(3-((4-(3-cyano-5-(2-(pyridin-3-yl)ethoxy)phenoxy)benzyl)(4-cyanobenzyl)amino)-2-methylphenyl)methanesulfonamide] | 95 | 94.9 | 94.6 | 93.7
